Assay [1] deals with C. tropicalis. Format: cell-based, Candida tropicalis.
In assay [2] the test system is C. parapsilosis. Format: cell-based, Candida parapsilosis.
The subject of assay [3] is C. neoformans. The class given is cell-based, Cryptococcus neoformans.
In assay [4] the test system is C. albicans. The class given is cell-based, Candida albicans. An excerpt:
One of the most serious crises facing both new and existing antimicrobial compounds is the rapid development of resistance by pathogens to that compound, rendering it useless. This has been an issue observed with all major commercially available antimicrobial drugs and is an increasingly prevalent issue with antifungal drugs (Clatworthy et al., Nat. Chem. Biol. 3, 541-548 (2007); Wiederhold et al., Infect. Drug Resist. 10, 249-259 (2017)). The ability of C. albicans to gain resistance against RMG9-11 was evaluated using two techniques; serial and single passage. Ching et al. described a method for single passage assessment of gain of resistance, which was used here with RMG9-11 (Ching et al., Sci. Rep. 10, 8754 (2020)). Briefly, a single colony of C. albicans was incubated overnight in RPMI-MOPS. Fungal cultures were then incubated for either 24 or 48 hours with concentrations of RMG9-11 ranging from 0 to 80% MIC. […] To further solidify this finding, C. albicans were introduced to increasing concentrations of RMG9-11 through a serial passage gain of resistance assay, as described by Samuelsen et al. (Samuelsen et al., FEBS Lett. 579, 3421-3426 (2005)). […] One main difference between serial and single passage assays is in the inoculation method from one passage to the next. The single passage relies on one individual colony while the serial passage focuses on a set concentration of fungi (cells/mL). At the end of serial passage, C. albicans that had been exposed to gradually increasing concentrations of RMG9-11 were used to prepare a traditional MIC assay. In theory, if fungi had evolved resistance during serial passage with sub-MIC antifungal agent, the MIC of RMG9-11 against these fungi should increase. […] To our knowledge, this is the first evaluation of the ability of a microbe to gain resistance to a peptoid, though it has long been hypothesized that gaining resistance to peptoids is unlikely.
A second gain of resistance through single passage was done for RMG9-11 against C. albicans following previously published methods as a confirmation of serial passage results (Ching et al., Sci. Rep. 10, 8754 (2020)). A single C. albicans colony was inoculated into RPMI-MOPS (pH 7; 5 mL) and incubated overnight (200 RPM; 37° C.). […] The following day, an MIC was performed with these cell solutions to evaluate gain of resistance after 48 hours. This assay was performed with four separate streaked plates from frozen stocks for biological replicate.

Values after ≈ are worked out from the molar mass of the structure shown. Read-outs that look alike come from different tables or passages of the source. Numbered stars: 1 amine (or outer) side, 2 acyl side, 3 side chain; on linkers, the order of the positions; unused ones are H or OH. Square brackets hold non-standard residues; d marks the D form. Peptide text beside a SMILES is read from it. N(tridecyl)Gly = CCCCCCCCCCCCCNCC(=O)O; X1 = CC(c1ccccc1)N(CC(=O)[*:2])[*:1]; NFurfurylGly = O=C(O)CNCc1ccco1; Gly(N(CH2)3NH2) = NCCCNCC(=O)O; Nphe = O=C(O)CNCc1ccccc1; NPrGly = CCCNCC(=O)O; Nlys = NCCCCNCC(=O)O

In the case of `CCCCCCCCCCCCCNCC(=O)N(CCC)CC(=O)N(CC(=O)N(CCCCN)CC(=O)N(CC(=O)N(CC(=O)N(CCCN)CC(N)=O)Cc1ccccc1)Cc1ccco1)C(C)c1ccccc1` (centres unmarked) [RMG9-11] (H-[N(tridecyl)Gly][NPrGly][X1][Nlys][NFurfurylGly][Nphe][Gly(N(CH2)3NH2)]-NH2), in assay [1], the “MIC C. tropicalis” value is 3.13 µg/mL (≈ 3 µM). Further, in assay [2], the “MIC C. parapsilosis” value is 6.25 µg/mL (≈ 5.99 µM). In addition, in assay [3], the “improvement of MIC C. neoformans vs C. albicans” value turned out to be 2 fold. In assay [3] (72 h), the “MIC C. neoformans” value stood at 3.13 µg/mL (≈ 3 µM). The “Single Passage 24 h MIC” value in assay [4] (C. albicans pre-exposed 24 h to 0% MIC RMG9-11), in assay [4] (pre-exposed 24 h to 10% MIC), in assay [4] (pre-exposed 24 h to 20% MIC), in assay [4] (pre-exposed 24 h to 40% MIC), in assay [4] (pre-exposed 24 h to 60% MIC) and in assay [4] (pre-exposed 24 h to 80% MIC) was 6.25 µg/mL each time. In addition, the “Single Passage 48 h MIC” value in assay [4] (pre-exposed 48 h to 0% MIC), in assay [4] (pre-exposed 48 h to 10% MIC), in assay [4] (pre-exposed 48 h to 20% MIC), in assay [4] (pre-exposed 48 h to 40% MIC), in assay [4] (pre-exposed 48 h to 60% MIC) and in assay [4] (pre-exposed 48 h to 80% MIC) was 6.25 µg/mL throughout. Further, in assay [4] (single passage, in words), the “ability of C. albicans to develop resistance” value is listed as “unable to develop resistance”.
